Laboratory results taken from US12668600B2 (Kumquat Biosciences Inc., priority 2023, dated 2026).

How the values were obtained:
Type in all cases: biochemical
KRAS WT = biological target: T1, KRAS WT (Homo sapiens, UniProt P01116); assay: HTRF KRAS-SOS1 interaction assay, wildtype KRAS; settings: binned ≤2 μM / >2 μM, read-out: Inhibition of KRAS WT (IC50)
T1 construct: made in house; host or cells: E. coli, e.g. BL21 (DE3)
Outline: (§1)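 GST-tagged KRAS (WT or mutant) with anti-GST-Eu donor and His-hSOS1 with anti-6His-XL665 acceptor were combined in 5 mM HEPES pH 7.4, 150 mM NaCl, 1 mM DTT, 0.05% BSA, 0.0025% Igepal. After ~10 min, HTRF was read (ex 337, em 620/665 nm); IC50 from 665/620 ratio.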

KRAS G12D = biological target: T2, KRAS G12D (Homo sapiens, UniProt P01116, G12D); assay: HTRF KRAS-SOS1 interaction assay, KRAS G12D; settings: binned ≤2 μM / >2 μM, read-out: Inhibition of KRAS G12D (IC50)
T2 construct: made in house; host or cells: E. coli, e.g. BL21 (DE3)
T2 sequence (P01116 1-188 isoform P01116-2 G12D): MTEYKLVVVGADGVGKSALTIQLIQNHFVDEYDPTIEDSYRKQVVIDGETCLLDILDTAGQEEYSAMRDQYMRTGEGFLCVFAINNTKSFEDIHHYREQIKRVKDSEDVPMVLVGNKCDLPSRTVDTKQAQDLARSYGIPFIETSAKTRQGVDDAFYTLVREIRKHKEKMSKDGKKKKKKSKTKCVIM
Outline: as §1

KRAS G12S = biological target: T3, KRAS G12S (Homo sapiens, UniProt P01116, G12S); assay: HTRF KRAS-SOS1 interaction assay, KRAS G12S; settings: binned ≤2 μM / >2 μM, read-out: Inhibition of KRAS G12S (IC50)
T3 construct: made in house; host or cells: E. coli, e.g. BL21 (DE3)
T3 sequence (P01116 1-188 isoform P01116-2 G12S): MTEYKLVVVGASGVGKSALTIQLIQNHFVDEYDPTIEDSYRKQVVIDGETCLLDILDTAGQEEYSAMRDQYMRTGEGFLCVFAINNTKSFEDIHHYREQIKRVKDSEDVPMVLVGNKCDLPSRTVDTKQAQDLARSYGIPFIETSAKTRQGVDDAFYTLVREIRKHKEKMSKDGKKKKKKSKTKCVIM
Outline: as §1

KRAS G12V = biological target: T4, KRAS G12V (Homo sapiens, UniProt P01116, G12V); assay: HTRF KRAS-SOS1 interaction assay, KRAS G12V; settings: binned ≤2 μM / >2 μM, read-out: Inhibition of KRAS G12V (IC50)
T4 construct: made in house; host or cells: E. coli, e.g. BL21 (DE3)
T4 sequence (P01116 1-188 isoform P01116-2 G12V): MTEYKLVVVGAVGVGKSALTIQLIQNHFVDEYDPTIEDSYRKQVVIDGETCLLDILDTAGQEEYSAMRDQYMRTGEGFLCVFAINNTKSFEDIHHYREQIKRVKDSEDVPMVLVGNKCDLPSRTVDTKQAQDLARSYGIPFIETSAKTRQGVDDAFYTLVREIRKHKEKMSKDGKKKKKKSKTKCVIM
Outline: as §1

T1 sequence (P01116 1-188 isoform P01116-2): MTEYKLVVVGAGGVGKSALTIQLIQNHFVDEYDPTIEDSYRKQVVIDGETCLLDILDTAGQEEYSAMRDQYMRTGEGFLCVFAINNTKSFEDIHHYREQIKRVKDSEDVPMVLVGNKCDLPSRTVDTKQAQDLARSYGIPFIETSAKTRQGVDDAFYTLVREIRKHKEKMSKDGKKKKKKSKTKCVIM

| SMILES | IC50 (KRAS WT) [µM] | IC50 (KRAS G12D) [µM] | IC50 (KRAS G12S) [µM] | IC50 (KRAS G12V) [µM] |
| --- | --- | --- | --- | --- |
| C[C@H](c1cncnc1N)N1CCOc2c(C(F)(F)F)c(-c3ccc(F)c4sc(N)c(C#N)c34)c(F)c3nc(OCC4(CN5CCC(=CF)CC5)CC4)nc1c23 [Compound 916, 2-amino-4-(4-((R)-1-(4-aminopyrimidin-5-yl)ethyl)-10-fluoro-2-((1-((4-(fluoromethylene)piperidin-1-yl)methyl)cyclopropyl)methoxy)-8-(trifluoromethyl)-5,6-dihydro-4H-[1,4]oxazepino[5,6,7-de]quinazolin-9-yl)-7-fluorobenzo[b]thiophene-3-carbonitrile] | ≤ 2 | ≤ 2 | ≤ 2 | ≤ 2 |
| C[C@H](c1ccc(F)nc1N)N1CCOc2c(C(F)(F)F)c(-c3ccc(F)c4sc(N)c(C#N)c34)c(F)c3nc(OCC4(CN5CCC(F)CC5)CC4)nc1c23 [Compound 604, 2-amino-4-(4-((R)-1-(2-amino-6-fluoropyridin-3-yl)ethyl)-10-fluoro-2-((1-((4-fluoropiperidin-1-yl)methyl)cyclopropyl)methoxy)-8-(trifluoromethyl)-5,6-dihydro-4H-[1,4]oxazepino[5,6,7-de]quinazolin-9-yl)-7-fluorobenzo[b]thiophene-3-carbonitrile] | ≤ 2 | ≤ 2 | ≤ 2 | ≤ 2 |
| Cc1ccc([C@@H](C)N2CCOc3c(Cl)c(-c4ccc(F)c5sc(N)c(C#N)c45)c(F)c4nc(OC[C@@]56CCCN5C[C@H](F)C6)nc2c34)c(N)n1 [Compound 736, 2-amino-4-(4-((R)-1-(2-amino-6-methylpyridin-3-yl)ethyl)-8-chloro-10-fluoro-2-(((2R,7aS)-2-fluorotetrahydro-1H-pyrrolizin-7a(5H)-yl)methoxy)-5,6-dihydro-4H-[1,4]oxazepino[5,6,7-de]quinazolin-9-yl)-7-fluorobenzo[b]thiophene-3-carbonitrile] | ≤ 2 | ≤ 2 | ≤ 2 | ≤ 2 |
| C[C@H](c1cccnc1N)N1CCOc2c(C(F)(F)F)c(-c3ccc(F)c4sc(N)c(C#N)c34)c(F)c3nc(OCC4(CN5CCC(=CF)CC5)CC4)nc1c23 [Compound 814, 2-amino-4-(4-((R)-1-(2-aminopyridin-3-yl)ethyl)-10-fluoro-2-((1-((4-(fluoromethylene)piperidin-1-yl)methyl)cyclopropyl)methoxy)-8-(trifluoromethyl)-5,6-dihydro-4H-[1,4]oxazepino[5,6,7-de]quinazolin-9-yl)-7-fluorobenzo[b]thiophene-3-carbonitrile] | ≤ 2 | ≤ 2 | ≤ 2 | ≤ 2 |
| N#Cc1c(N)sc2c(F)ccc(-c3c(C(F)(F)F)c4c5c(nc(OC[C@@]67CCCN6C[C@@]6(CC6(F)F)C7)nc5c3F)N([C@H](CCC3CCOCC3)c3cccnc3N)CCO4)c12 [Compound 650, 2-amino-4-(4-((R)-1-(2-aminopyridin-3-yl)-3-(tetrahydro-2H-pyran-4-yl)propyl)-2-(((1S,7a′S)-2,2-difluorodihydro-1′H,3′H-spiro[cyclopropane-1,2′-pyrrolizin]-7a′(5′H)-yl)methoxy)-10-fluoro-8-(trifluoromethyl)-5,6-dihydro-4H-[1,4]oxazepino[5,6,7-de]quinazolin-9-yl)-7-fluorobenzo[b]thiophene-3-carbonitrile] | ≤ 2 | ≤ 2 | ≤ 2 | ≤ 2 |
| CO[C@H]1CCN(C)[C@@H]1[C@H](C)Oc1nc2c3c(c(C(F)(F)F)c(-c4ccc(F)c5sc(N)c(C#N)c45)c(F)c3n1)OCCN2[C@H](C)c1cc(F)cnc1N [Compound 630, 2-amino-4-(4-((R)-1-(2-amino-5-fluoropyridin-3-yl)ethyl)-10-fluoro-2-((S)-1-((2R,3S)-3-methoxy-1-methylpyrrolidin-2-yl)ethoxy)-8-(trifluoromethyl)-5,6-dihydro-4H-[1,4]oxazepino[5,6,7-de]quinazolin-9-yl)-7-fluorobenzo[b]thiophene-3-carbonitrile] | ≤ 2 | ≤ 2 | ≤ 2 | ≤ 2 |

Further lines, results first:

| IC50 (KRAS WT) [µM] | IC50 (KRAS G12D) [µM] | IC50 (KRAS G12S) [µM] | IC50 (KRAS G12V) [µM] | SMILES |
| --- | --- | --- | --- | --- |
| ≤ 2 | ≤ 2 | ≤ 2 | ≤ 2 | CN1CCC[C@H]1COc1nc2c3c(c(Cl)c(-c4ccc(F)c5sc(N)c(C#N)c45)c(F)c3n1)OCCN2C(c1cccnc1N)C(F)F (mixture of isomers) [Compound 769, 2-amino-4-(4-(1-(2-aminopyridin-3-yl)-2,2-difluoroethyl)-8-chloro-10-fluoro-2-(((S)-1-methylpyrrolidin-2-yl)methoxy)-5,6-dihydro-4H-[1,4]oxazepino[5,6,7-de]quinazolin-9-yl)-7-fluorobenzo[b]thiophene-3-carbonitrile] |
| ≤ 2 | ≤ 2 | ≤ 2 | ≤ 2 | C[C@H](c1cc(Cl)cnc1N)N1CCOc2c(C(F)(F)F)c(-c3ccc(F)c4sc(N)c(C#N)c34)c(F)c3nc(OC[C@@]45CCCN4CC(=C(F)F)C5)nc1c23 [Compound 793, 2-amino-4-(4-((R)-1-(2-amino-5-chloropyridin-3-yl)ethyl)-2-(((S)-2-(difluoromethylene)tetrahydro-1H-pyrrolizin-7a(5H)-yl)methoxy)-10-fluoro-8-(trifluoromethyl)-5,6-dihydro-4H-[1,4]oxazepino[5,6,7-de]quinazolin-9-yl)-7-fluorobenzo[b]thiophene-3-carbonitrile] |
| ≤ 2 | ≤ 2 | ≤ 2 | ≤ 2 | C[C@H](c1cc(F)cnc1N)N1CCOc2c(C(F)(F)F)c(-c3ccc(F)c4sc(N)c(C#N)c34)c(F)c3nc(OC[C@@]45CCCN4C[C@@]4(CC4(F)F)C5)nc1c23 [Compound 878, 2-amino-4-(4-((R)-1-(2-amino-5-fluoropyridin-3-yl)ethyl)-2-(((1S,7a′S)-2,2-difluorodihydro-1′H,3′H-spiro[cyclopropane-1,2′-pyrrolizin]-7a′(5′H)-yl)methoxy)-10-fluoro-8-(trifluoromethyl)-5,6-dihydro-4H-[1,4]oxazepino[5,6,7-de]quinazolin-9-yl)-7-fluorobenzo[b]thiophene-3-carbonitrile] |
| ≤ 2 | ≤ 2 | ≤ 2 | ≤ 2 | C[C@H](c1cc(F)cnc1N)N1CCOc2c(C(F)(F)F)c(-c3ccc(F)c4sc(N)c(C#N)c34)c(F)c3nc(OC[C@@]45CCCN4C[C@H](F)C5)nc1c23 (single isomer, unassigned) [Compound 864] |
| ≤ 2 | ≤ 2 | ≤ 2 | ≤ 2 | C[C@H](c1cccnc1N)N1CCOc2c(Cl)c(-c3ccc(F)c4sc(N)c(C#N)c34)c(F)c3nc(OC[C@@]45CCCN4C[C@@]4(CC4(F)F)C5)nc1c23 [Compound 740, 2-amino-4-((R)-4-((R)-1-(2-aminopyridin-3-yl)ethyl)-8-chloro-2-(((1S,7a'S)-2,2-difluorodihydro-1′H,3′H-spiro[cyclopropane-1,2′-pyrrolizin]-7a′ (5′H)-yl)methoxy)-10-fluoro-5,6-dihydro-4H-[1,4]oxazepino[5,6,7-de]quinazolin-9-yl)-7-fluorobenzo[b]thiophene-3-carbonitrile] |
| ≤ 2 | ≤ 2 | ≤ 2 | ≤ 2 | N#Cc1c(N)sc2c(F)ccc(-c3c(Cl)c4c5c(nc(OC[C@@]67CCCN6C[C@@]6(CC6(F)F)C7)nc5c3F)N([C@@H](c3cccnc3N)C(F)F)CCO4)c12 [Compound 831, 2-amino-4-(4-((S)-1-(2-aminopyridin-3-yl)-2,2-difluoroethyl)-8-chloro-2-(((1S,7a′S)-2,2-difluorodihydro-1′H,3′H-spiro[cyclopropane-1,2′-pyrrolizin]-7a′(5′H)-yl)methoxy)-10-fluoro-5,6-dihydro-4H-[1,4]oxazepino[5,6,7-de]quinazolin-9-yl)-7-fluorobenzo[b]thiophene-3-carbonitrile] |
| ≤ 2 | ≤ 2 | ≤ 2 | ≤ 2 | C[C@H](c1cccnc1N)N1CCOc2nc(-c3ccc(F)c4sc(N)c(C#N)c34)c(F)c3nc(OC[C@@]45CCCN4C[C@H](F)C5)nc1c23 (single isomer, unassigned) [Compound 619] |
| ≤ 2 | ≤ 2 | ≤ 2 | ≤ 2 | C[C@H](c1cc(F)cnc1N)N1CCOc2c(C(F)(F)F)c(-c3ccc(F)c4sc(N)c(C#N)c34)c(F)c3nc(OCC4(CN5CC[C@@H](F)C5)CC4)nc1c23 [Compound 644, 2-amino-4-(4-((R)-1-(2-amino-5-fluoropyridin-3-yl)ethyl)-10-fluoro-2-((1-(((R)-3-fluoropyrrolidin-1-yl)methyl)cyclopropyl)methoxy)-8-(trifluoromethyl)-5,6-dihydro-4H-[1,4]oxazepino[5,6,7-de]quinazolin-9-yl)-7-fluorobenzo[b]thiophene-3-carbonitrile] |
| ≤ 2 | ≤ 2 | ≤ 2 | ≤ 2 | C=C1CN2CCC[C@@]2(COc2nc3c4c(c(C(F)(F)F)c(-c5ccc(F)c6sc(N)c(C#N)c56)c(F)c4n2)OCCN3[C@H](C)c2cccnc2N)C1 [Compound 621, 2-amino-4-(4-((R)-1-(2-aminopyridin-3-yl)ethyl)-10-fluoro-2-(((S)-2-methylenetetrahydro-1H-pyrrolizin-7a(5H)-yl)methoxy)-8-(trifluoromethyl)-5,6-dihydro-4H-[1,4]oxazepino[5,6,7-de]quinazolin-9-yl)-7-fluorobenzo[b]thiophene-3-carbonitrile] |
